# Results as given in article PMC10413907 (Journal of Evidence-based Integrative Medicine, 2023).
# “And” between values parts separate entries of the source, which are not always exact repeats. Equal values may be shown once. Read-outs that look alike come from different tables or passages of the source.
# What was measured:
# IL-12p19 mRNA = experiment: Pro-inflammatory cytokine mRNA expression; type: cell-based, human; details: PBMCs from psoriasis patients vs healthy subjects
# [1] = tested on: PBMCs (from healthy subjects); experiment: MTT cell proliferation assay, PBMCs; type: cell-based, human
# recombinant human CYP2C9 = recombinant human CYP2C9 (Homo sapiens, UniProt P11712); experiment: P450-Glo bioluminescent CYP450 inhibition assay
# recombinant human CYP1A2 = biological target: T1, recombinant human CYP1A2 (Homo sapiens, UniProt P05177); experiment: P450-Glo bioluminescent CYP450 inhibition assay; type: in vitro ADME
# T1 sequence (P05177 1-516): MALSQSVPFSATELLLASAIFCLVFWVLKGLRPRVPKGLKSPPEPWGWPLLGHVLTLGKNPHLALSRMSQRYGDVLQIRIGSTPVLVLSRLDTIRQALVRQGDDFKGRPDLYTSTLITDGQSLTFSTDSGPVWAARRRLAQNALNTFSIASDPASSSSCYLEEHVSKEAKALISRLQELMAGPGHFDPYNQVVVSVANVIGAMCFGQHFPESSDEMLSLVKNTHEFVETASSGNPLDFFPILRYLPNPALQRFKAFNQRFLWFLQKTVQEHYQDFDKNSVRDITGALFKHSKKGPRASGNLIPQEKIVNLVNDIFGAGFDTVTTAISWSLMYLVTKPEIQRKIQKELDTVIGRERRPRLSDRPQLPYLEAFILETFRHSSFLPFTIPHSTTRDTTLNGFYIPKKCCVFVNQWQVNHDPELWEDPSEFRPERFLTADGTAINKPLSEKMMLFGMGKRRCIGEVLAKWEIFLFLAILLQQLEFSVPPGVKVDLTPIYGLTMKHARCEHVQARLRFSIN
# recombinant human CYP2D6 = recombinant human CYP2D6 (Homo sapiens, UniProt P10635); experiment: P450-Glo bioluminescent CYP450 inhibition assay
# [2] = tested on: PBMCs from psoriasis patients and healthy subjects; experiment: Cell apoptosis/necrosis, FITC-Annexin V/PI flow cytometry, PBMCs; type: cell-based, human; details: 48 h exposure; for proportions of PBMCs with early apoptosis, psoriasis patients compared with healthy volunteers: both concentrations
# HaCaT cells = experiment: MTT cell proliferation assay, HaCaT; type: cell-based, human; details: 48 h, median (range)
# IL-23A mRNA = experiment: Pro-inflammatory cytokine mRNA expression; type: cell-based, human; details: PBMCs from psoriasis patients vs healthy subjects, 48 h
# IL-6 mRNA = experiment: Pro-inflammatory cytokine mRNA expression; type: cell-based, human; details: PBMCs from psoriasis patients vs healthy subjects; 48 h; IC50
# [3] = biological target: recombinant human CYP2C19 (Homo sapiens, UniProt P33261); experiment: P450-Glo bioluminescent CYP450 inhibition assay; type: in vitro ADME
# recombinant human CYP3A4 = recombinant human CYP3A4 (Homo sapiens, UniProt P08684); experiment: P450-Glo bioluminescent CYP450 inhibition assay; type: in vitro ADME
# TNF-α mRNA = experiment: Pro-inflammatory cytokine mRNA expression; type: cell-based, human; details: PBMCs from psoriasis patients vs healthy subjects; 48 h; IC25
# [4] = tested on: PBMCs from psoriasis patients and healthy subjects; experiment: Cell cycle analysis by flow cytometry; type: cell-based, human; details: PBMCs from patients with psoriasis; 24 h; both concentrations
# [5] = read-out: CYP2C9 IC50, median (range), unit of the reference inhibitor
# [6] = read-out: CYP2C9 inhibitory potency class, class by IC50
# [7] = read-out: CYP1A2 IC50, median (range), unit of the reference inhibitor
# [8] = read-out: CYP1A2 inhibitory potency class, class by IC50
# [9] = read-out: CYP2D6 IC50, median (range), unit of the reference inhibitor
# [10] = read-out: CYP2D6 inhibitory potency class, class by IC50
# [11] = read-out: CYP2C19 IC50, median (range), unit of the reference inhibitor
# [12] = read-out: CYP2C19 inhibitory potency class, class by IC50
# [13] = read-out: CYP3A4 IC50, median (range), unit of the reference inhibitor
# [14] = read-out: CYP3A4 inhibitory potency class, class by IC50
# Sequence of recombinant human CYP2C9 (P11712 whole entry): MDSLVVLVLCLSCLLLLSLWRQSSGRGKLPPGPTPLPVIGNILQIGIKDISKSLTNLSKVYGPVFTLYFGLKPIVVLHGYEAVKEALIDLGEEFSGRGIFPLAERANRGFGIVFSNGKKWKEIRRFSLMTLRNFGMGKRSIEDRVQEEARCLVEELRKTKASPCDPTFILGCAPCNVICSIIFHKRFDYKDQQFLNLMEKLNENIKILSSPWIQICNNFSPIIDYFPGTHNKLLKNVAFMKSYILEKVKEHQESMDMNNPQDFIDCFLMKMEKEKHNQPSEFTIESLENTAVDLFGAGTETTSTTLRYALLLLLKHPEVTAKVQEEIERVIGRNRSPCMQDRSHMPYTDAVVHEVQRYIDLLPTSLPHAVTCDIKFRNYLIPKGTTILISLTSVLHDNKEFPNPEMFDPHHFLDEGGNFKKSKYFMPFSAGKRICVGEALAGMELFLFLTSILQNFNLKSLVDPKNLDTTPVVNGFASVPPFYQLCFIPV
# Sequence of recombinant human CYP2D6 (P10635 whole entry): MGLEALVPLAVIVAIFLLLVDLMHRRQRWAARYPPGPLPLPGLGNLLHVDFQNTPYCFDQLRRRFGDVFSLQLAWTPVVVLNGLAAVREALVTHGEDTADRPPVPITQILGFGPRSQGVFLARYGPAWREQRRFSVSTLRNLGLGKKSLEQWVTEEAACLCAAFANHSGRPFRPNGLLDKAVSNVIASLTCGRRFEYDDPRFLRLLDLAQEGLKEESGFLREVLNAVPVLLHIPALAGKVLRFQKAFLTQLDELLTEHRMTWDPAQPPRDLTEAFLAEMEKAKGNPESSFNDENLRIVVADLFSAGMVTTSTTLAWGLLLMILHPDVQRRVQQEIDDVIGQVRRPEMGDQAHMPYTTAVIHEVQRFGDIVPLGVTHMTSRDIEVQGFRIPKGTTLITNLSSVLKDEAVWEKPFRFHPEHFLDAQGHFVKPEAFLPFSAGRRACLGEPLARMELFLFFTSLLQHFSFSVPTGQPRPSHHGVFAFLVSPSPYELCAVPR
# Sequence of recombinant human CYP2C19 (P33261 whole entry): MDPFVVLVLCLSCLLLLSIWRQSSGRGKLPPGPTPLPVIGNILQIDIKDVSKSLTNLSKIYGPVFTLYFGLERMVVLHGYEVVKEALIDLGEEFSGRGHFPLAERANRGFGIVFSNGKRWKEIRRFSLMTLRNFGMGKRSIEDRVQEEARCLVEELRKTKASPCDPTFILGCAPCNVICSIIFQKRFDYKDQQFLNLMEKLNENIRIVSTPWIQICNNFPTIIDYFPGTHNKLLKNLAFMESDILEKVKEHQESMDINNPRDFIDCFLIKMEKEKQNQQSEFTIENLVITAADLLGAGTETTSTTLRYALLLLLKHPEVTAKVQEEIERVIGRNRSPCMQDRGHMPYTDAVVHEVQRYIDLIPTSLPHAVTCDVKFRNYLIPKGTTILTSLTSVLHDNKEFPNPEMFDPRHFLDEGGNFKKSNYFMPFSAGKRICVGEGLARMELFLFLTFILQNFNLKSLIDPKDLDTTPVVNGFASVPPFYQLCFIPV
# Sequence of recombinant human CYP3A4 (P08684 whole entry): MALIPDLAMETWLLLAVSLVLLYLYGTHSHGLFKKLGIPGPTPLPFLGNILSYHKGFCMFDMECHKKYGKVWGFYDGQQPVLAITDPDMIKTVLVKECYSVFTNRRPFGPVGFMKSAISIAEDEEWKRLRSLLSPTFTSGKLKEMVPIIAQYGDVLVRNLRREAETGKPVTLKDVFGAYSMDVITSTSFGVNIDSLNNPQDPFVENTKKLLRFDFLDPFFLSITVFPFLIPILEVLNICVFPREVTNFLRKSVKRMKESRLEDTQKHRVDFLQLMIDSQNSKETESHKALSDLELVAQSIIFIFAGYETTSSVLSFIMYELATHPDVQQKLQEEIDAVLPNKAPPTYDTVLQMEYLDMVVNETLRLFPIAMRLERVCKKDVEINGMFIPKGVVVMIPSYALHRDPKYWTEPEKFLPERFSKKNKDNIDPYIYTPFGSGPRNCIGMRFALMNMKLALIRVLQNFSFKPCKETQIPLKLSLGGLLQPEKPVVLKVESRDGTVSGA
compound,measurement,setting,value
"CCOC(=O)C=Cc1ccc(OC)cc1 [EPMC, ethyl-p-methoxycinnamate]",IL-12p19 mRNA expression,"IL-12p19 mRNA; 24 h, only at IC50",downregulating
same,PBMCs IC25,"[1]; 48 h, median (range)",254 (234-258) μM
same,PBMCs IC50,"[1]; 48 h, median (range)",63.09 µg/mL
same,IC50,"[1]; read-out: PBMCs IC50, 48 h, median (range)",306 µM and 305 µM
same,IC50,recombinant human CYP2C9; [5],87.5 µM
same,IC50,recombinant human CYP2C9; [6],> 50 µM
same,IC50,recombinant human CYP1A2; [7],118 µM
same,IC50,recombinant human CYP1A2; [8],> 50 µM
same,CYP2D6 inhibitory potency class,recombinant human CYP2D6; class by IC50,moderately inhibited
same,IC50,recombinant human CYP2D6; [9],17.8 µM
same,IC50,recombinant human CYP2D6; [10],10 to 50 µM
same,"proportions of PBMCs with early apoptosis, psoriasis patients compared with healthy volunteers",[2],significantly lower
same,HaCaT IC25,HaCaT cells; MTT,432 (395-458) μM
same,HaCaT IC50,HaCaT cells; MTT,114.25 µg/mL
same,IC50,"HaCaT cells; read-out: HaCaT IC50, MTT",554 µM
same,IL-23A mRNA expression,IL-23A mRNA; IC50,reduced
same,IL-6 mRNA expression,IL-6 mRNA,reduced
same,IC50,[3]; [11],80.4 µM
same,IC50,[3]; [12],> 50 µM
same,IC50,recombinant human CYP3A4; [13],865 µM
same,IC50,recombinant human CYP3A4; [14],> 50 µM
"COc1cc(/C=C/C(=O)O)ccc1O [Ferulic acid, ferulic acid]",IC50,recombinant human CYP2C9; [5],469 µM
same,IC50,recombinant human CYP2C9; [6],> 50 µM
same,IC50,recombinant human CYP1A2; [7],5250 µM
same,IC50,recombinant human CYP1A2; [8],> 50 µM
same,CYP2D6 inhibitory potency class,recombinant human CYP2D6; class by IC50,moderately inhibited
same,IC50,recombinant human CYP2D6; [9],11.4 µM
same,IC50,recombinant human CYP2D6; [10],10 to 50 µM
same,IC50,[3]; [11],1450 µM
same,IC50,[3]; [12],> 50 µM
same,IC50,recombinant human CYP3A4; [13],1150 µM
same,IC50,recombinant human CYP3A4; [14],> 50 µM
"CCC/C=C1\OC(=O)C2=C1CCC=C2 [Ligustilide, ligustilide]",IL-12p19 mRNA expression,"IL-12p19 mRNA; 48 h, IC25",downregulated
same,TNF-α mRNA expression,TNF-α mRNA,downregulated
same,PBMCs IC25,"[1]; 48 h, median (range)",105 (101-106) μM
same,IC50,"recombinant human CYP2C9; CYP2C9 IC50, median (range), unit of the reference inhibitor",114 µM
same,IC50,"recombinant human CYP2C9; CYP2C9 inhibitory potency class, class by IC50",> 50 µM
same,IC50,recombinant human CYP1A2,10 to 50 µM
same,CYP1A2 inhibitory potency class,recombinant human CYP1A2; class by IC50,moderately inhibited
same,IC50,"recombinant human CYP2D6; CYP2D6 IC50, median (range), unit of the reference inhibitor",218 µM
same,IC50,"recombinant human CYP2D6; CYP2D6 inhibitory potency class, class by IC50",> 50 µM
same,proportions of living PBMCs from psoriasis patients compared with PBMCs from healthy volunteers,[2],significantly higher
same,"proportions of PBMCs with early apoptosis, psoriasis patients compared with healthy volunteers",[2],significantly lower
same,IC50,"HaCaT cells; Homo sapiens, HaCaT, read-out: HaCaT IC50, MTT, 48 h",188 µM and 35.8 µg/mL
same,HaCaT IC25,HaCaT cells; MTT,151 (138-155) μM
same,IL-23A mRNA expression,IL-23A mRNA; IC25,downregulated
same,phase of cell cycle arrest,[4],S phase
same,IL-6 mRNA expression,IL-6 mRNA,downregulating
same,IC50,"[3]; CYP2C19 IC50, median (range), unit of the reference inhibitor",89.2 µM
same,IC50,"[3]; CYP2C19 inhibitory potency class, class by IC50",> 50 µM
same,IC50,"recombinant human CYP3A4; CYP3A4 IC50, median (range), unit of the reference inhibitor",39.8 µM
same,IC50,"recombinant human CYP3A4; CYP3A4 inhibitory potency class, class by IC50",10 to 50 µM
same,CYP3A4 inhibitory potency class,recombinant human CYP3A4; class by IC50,moderately inhibited
